{"source": "patent US6136813A", "about": "“Pharmaceutical treatment” (Beecham plc, priority 1989, dated 2000)", "assay": "Blood levels of penciclovir in Pekin ducks after oral dosing with penciclovir or famciclovir", "assay_type": "in vivo", "conditions": "duck; for AUC at 6 h: 0-6 hr; for concentration at 0.25 h: 15 min; for concentration at 32 min / concentration at 0.5 h: 30 min; for concentration at 32 min: sample collected at 32 min; for concentration at 1 h / concentration at 65 min: 60 min; for concentration at 2 h: 120 min; for concentration at 4 h: 240 min; for concentration at 6 h: 360 min; for concentration at 65 min: sample collected at 65 min", "key": {"[1]": {"conditions": "5 mg/kg, oral famciclovir 5 mg/kg, Duck No. 117"}, "[2]": {"conditions": "5 mg/kg, oral famciclovir 5 mg/kg, Duck No. 154"}, "[3]": {"conditions": "25 mg/kg, oral famciclovir 25 mg/kg, Duck No. 111"}, "[4]": {"conditions": "25 mg/kg, oral famciclovir 25 mg/kg, Duck No. 153"}, "[5]": {"conditions": "20 mg/kg, oral penciclovir 20 mg/kg, Duck No. 139"}, "[6]": {"conditions": "20 mg/kg, oral penciclovir 20 mg/kg, Duck No. 169"}, "[7]": {"conditions": "100 mg/kg, oral penciclovir 100 mg/kg, Duck No. 142"}, "[8]": {"conditions": "100 mg/kg, oral penciclovir 100 mg/kg, Duck No. 163"}}, "note": "Where two headings read alike, the source gives them in different places.", "data": [{"compound": "CC(=O)OCC(CCn1cnc2cnc(N)nc21)COC(C)=O", "note": "[famciclovir, 9-(4-acetoxy-3-acetoxymethylbut-1-yl)-2-aminopurine]", "values": [{"measurement": "AUC at 6 h", "setting": "5 mg/kg, oral famciclovir 5 mg/kg, Duck No. 117, read-out: AUC (area under the 0-6 hr. concentration/time curve) of penciclovir in blood", "result": 15, "unit": "µM·h"}, {"measurement": "AUC at 6 h", "setting": "5 mg/kg, oral famciclovir 5 mg/kg, Duck No. 154, read-out: AUC (area under the 0-6 hr. concentration/time curve) of penciclovir in blood", "result": 12, "unit": "µM·h"}, {"measurement": "concentration at 0.25 h", "setting": "[1]", "result": 8.7, "unit": "µM"}, {"measurement": "concentration at 0.25 h", "setting": "[2]", "result": 5.1, "unit": "µM"}, {"measurement": "concentration at 32 min", "setting": "[1]", "result": 8.4, "unit": "µM"}, {"measurement": "concentration at 32 min", "setting": "[2]", "result": 3.9, "unit": "µM"}, {"measurement": "concentration at 1 h", "setting": "[1]", "result": 7.5, "unit": "µM"}, {"measurement": "concentration at 1 h", "setting": "[2]", "result": 3.5, "unit": "µM"}, {"measurement": "concentration at 2 h", "setting": "[1]", "result": 2, "unit": "µM"}, {"measurement": "concentration at 2 h", "setting": "[2]", "result": 2, "unit": "µM"}, {"measurement": "concentration at 4 h", "setting": "[1]", "result": "~0.5", "unit": "µM"}, {"measurement": "concentration at 4 h", "setting": "[2]", "result": 1.4, "unit": "µM"}, {"measurement": "concentration at 6 h", "setting": "[2]", "result": 1, "unit": "µM"}, {"measurement": "AUC at 6 h", "setting": "25 mg/kg, oral famciclovir 25 mg/kg, Duck No. 111, read-out: AUC (area under the 0-6 hr. concentration/time curve) of penciclovir in blood", "result": 126, "unit": "µM·h"}, {"measurement": "AUC at 6 h", "setting": "25 mg/kg, oral famciclovir 25 mg/kg, Duck No. 153, read-out: AUC (area under the 0-6 hr. concentration/time curve) of penciclovir in blood", "result": 90, "unit": "µM·h"}, {"measurement": "concentration at 0.25 h", "setting": "[3]", "result": 22, "unit": "µM"}, {"measurement": "concentration at 0.25 h", "setting": "[4]", "result": 18, "unit": "µM"}, {"measurement": "concentration at 0.5 h", "setting": "[3]", "result": 31, "unit": "µM"}, {"measurement": "concentration at 32 min", "setting": "[4]", "result": 20, "unit": "µM"}, {"measurement": "concentration at 1 h", "setting": "[3]", "result": 34, "unit": "µM"}, {"measurement": "concentration at 1 h", "setting": "[4]", "result": 25, "unit": "µM"}, {"measurement": "concentration at 2 h", "setting": "[3]", "result": 33, "unit": "µM"}, {"measurement": "concentration at 2 h", "setting": "[4]", "result": 20, "unit": "µM"}, {"measurement": "concentration at 4 h", "setting": "[3]", "result": 14, "unit": "µM"}, {"measurement": "concentration at 4 h", "setting": "[4]", "result": 4.4, "unit": "µM"}, {"measurement": "concentration at 6 h", "setting": "[3]", "result": 6.1, "unit": "µM"}, {"measurement": "concentration at 6 h", "setting": "[4]", "result": "~0.5", "unit": "µM"}]}, {"compound": "Nc1nc2c(ncn2CCC(CO)CO)c(=O)[nH]1", "note": "[penciclovir]", "values": [{"measurement": "AUC at 6 h", "setting": "20 mg/kg, oral penciclovir 20 mg/kg, Duck No. 139, read-out: AUC (area under the 0-6 hr. concentration/time curve) of penciclovir in blood", "result": 55, "unit": "µM·h"}, {"measurement": "AUC at 6 h", "setting": "20 mg/kg, oral penciclovir 20 mg/kg, Duck No. 169, read-out: AUC (area under the 0-6 hr. concentration/time curve) of penciclovir in blood", "result": 57, "unit": "µM·h"}, {"measurement": "concentration at 0.25 h", "setting": "[5]", "result": 24, "unit": "µM"}, {"measurement": "concentration at 0.25 h", "setting": "[6]", "result": 41, "unit": "µM"}, {"measurement": "concentration at 0.5 h", "setting": "[5]", "result": 28, "unit": "µM"}, {"measurement": "concentration at 0.5 h", "setting": "[6]", "result": 30, "unit": "µM"}, {"measurement": "concentration at 65 min", "setting": "[5]", "result": 18, "unit": "µM"}, {"measurement": "concentration at 65 min", "setting": "[6]", "result": 19, "unit": "µM"}, {"measurement": "concentration at 2 h", "setting": "[5]", "result": 12, "unit": "µM"}, {"measurement": "concentration at 2 h", "setting": "[6]", "result": 10, "unit": "µM"}, {"measurement": "concentration at 4 h", "setting": "[5]", "result": 2.8, "unit": "µM"}, {"measurement": "concentration at 4 h", "setting": "[6]", "result": 2.6, "unit": "µM"}, {"measurement": "concentration at 6 h", "setting": "[5]", "result": "~0.5", "unit": "µM"}, {"measurement": "AUC at 6 h", "setting": "100 mg/kg, oral penciclovir 100 mg/kg, Duck No. 142, read-out: AUC (area under the 0-6 hr. concentration/time curve) of penciclovir in blood", "result": 92, "unit": "µM·h"}, {"measurement": "AUC at 6 h", "setting": "100 mg/kg, oral penciclovir 100 mg/kg, Duck No. 163, read-out: AUC (area under the 0-6 hr. concentration/time curve) of penciclovir in blood", "result": 95, "unit": "µM·h"}, {"measurement": "concentration at 0.25 h", "setting": "[7]", "result": 43, "unit": "µM"}, {"measurement": "concentration at 0.25 h", "setting": "[8]", "result": 42, "unit": "µM"}, {"measurement": "concentration at 0.5 h", "setting": "[7]", "result": 44, "unit": "µM"}, {"measurement": "concentration at 0.5 h", "setting": "[8]", "result": 38, "unit": "µM"}, {"measurement": "concentration at 1 h", "setting": "[7]", "result": 40, "unit": "µM"}, {"measurement": "concentration at 65 min", "setting": "[8]", "result": 44, "unit": "µM"}, {"measurement": "concentration at 2 h", "setting": "[7]", "result": 18, "unit": "µM"}, {"measurement": "concentration at 2 h", "setting": "[8]", "result": 21, "unit": "µM"}, {"measurement": "concentration at 4 h", "setting": "[7]", "result": 3.6, "unit": "µM"}, {"measurement": "concentration at 4 h", "setting": "[8]", "result": 2.7, "unit": "µM"}, {"measurement": "concentration at 6 h", "setting": "[7]", "result": 1.1, "unit": "µM"}, {"measurement": "concentration at 6 h", "setting": "[8]", "result": "~0.5", "unit": "µM"}]}]}
